# Test results from patent US20060263453A1, “Methods and compositions for modulating glutamate dehydrogenase” (priority 2004, published 2006).
# Key:
# islets = test: [U-14C]-glutamine oxidation in islets; type: cell-based, rat
# Description: In a first experiment, a batch of 100 islets were incubated with glucose-free Krebs-Ringer bicarbonate buffer, as described herein, containing 20 μM EGCG or 20 μM EGC and 2 mM glutamine for 60 minutes. The islets were then incubated in the presence of varying concentrations of BCH (shown in FIG. 7A) for 60 minutes, and for an additional 60 minutes in the presence of 2 mCi [U-^14C]-glutamine (NEN-Life Science Products, UK). Next, [U-^14C]-glutamine oxidation in the incubated islets was measured. A trap filter was placed in each tightly sealed glass tube of the perifusion apparatus to collect the ^14CO2 produced by the islets, and the amount of radioactivity was determined by liquid scintillation counting. The results are summarized in FIG. 7A, and are presented as means±S.E. from 4 separate experiments. […] The islets were then incubated in the presence of 10 mM BCH (or no BCH—to measure “baseline” glutamine oxidation levels) for 60 minutes. The islets were then incubated for an additional 60 minutes in the presence of 2 mCi [U-^14C]-glutamine (NEN-Life Science Products, UK). Next, [U-^14C]-glutamine oxidation in the incubated islets was measured, as described above.
# Bovine GDH (bGDH) = target: T1, Bovine GDH (bGDH) (Bos taurus, UniProt P00366); test: reductive amination reaction catalyzed by bovine GDH (NADH absorbance at 340 nm); type: biochemical; settings: FIG. 1A
# T1 construct: purchased Sigma Aldrich Chemical Company (St. Louis, Mo.)
# T1 sequence (P00366 58-558): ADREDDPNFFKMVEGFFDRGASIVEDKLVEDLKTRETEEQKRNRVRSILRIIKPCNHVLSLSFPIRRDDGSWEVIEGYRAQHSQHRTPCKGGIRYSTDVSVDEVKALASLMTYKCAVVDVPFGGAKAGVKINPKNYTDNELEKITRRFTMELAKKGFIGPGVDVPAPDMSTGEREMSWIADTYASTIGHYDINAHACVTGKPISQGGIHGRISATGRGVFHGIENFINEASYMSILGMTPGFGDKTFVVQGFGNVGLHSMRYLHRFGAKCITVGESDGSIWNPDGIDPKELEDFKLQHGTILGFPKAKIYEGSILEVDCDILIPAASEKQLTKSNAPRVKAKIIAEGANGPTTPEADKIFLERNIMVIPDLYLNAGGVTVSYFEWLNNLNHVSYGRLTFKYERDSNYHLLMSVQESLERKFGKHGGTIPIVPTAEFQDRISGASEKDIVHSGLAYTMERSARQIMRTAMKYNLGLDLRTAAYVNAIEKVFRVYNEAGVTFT
# Description: In this Example, the effects of epigallocatechin gallate (EGCG), epigallocatechin (EGC), epicatechin gallate (ECG), and epicatechin (EC) from Camellia sinensis on GDH activity were tested. Bovine GDH (bGDH) was used in this Example, which was obtained as an aqueous (NH4)2SO4 suspension from Sigma Aldrich Chemical Company (St. Louis, Mo.).
# First, aliquots of GDH were extensively dialyzed against 0.1M sodium phosphate buffer, pH 7.0, which contained 1 mM ethylenediaminetetraacetic acid (EDTA). The enzyme concentrations were adjusted to 1 mg/ml and the amount of enzyme added to the reaction mixture, for kinetic analysis, was adjusted to yield optimal steady state velocity measurements. All solutions were made immediately prior to use. Enzyme assays were performed by monitoring reduced coenzyme absorbance at 340 nm using a Shimadzu UV-1601 spectrophotometer. The reductive amination reactions were performed in 3 mL volumes at pH 7.0 in the presence of 0.1 mM nicotinamide adenine dinucleotide (NADH), 50 mM NH4Cl, and 5 mM 2-oxoglutarate. The rate of NADH oxidation was calculated using an extinction coefficient of 6.22 mM^−1 cm^−1.
# rat islets [1] = test: glucose stimulated insulin secretion (GSIS), short run-down (50 minutes), glucose ramp; type: cell-based; settings: 20 μM, FIGS. 8A and 8B
# Description: In this Example, the effect of EGCG on glucose stimulated insulin secretion (GSIS) was examined. Isolated rat islets were cultured with 20 mM glucose (FIG. 8A) and 10 mM glucose (FIG. 8B) for 3 days, then perifused in the absence of glucose for 50 minutes and in the presence of 0 μM EGCG; 20 μM EGCG; or 20 μM EGC. Next, the islets were stimulated by a glucose ramp (0 to 25 mM, 0.5 mM/minute). Finally, the islets were exposed to 30 mM KCl. Insulin levels were measured every minute by radioimmunoassay. The results shown in FIG. 8A are presented as means±S.E. for 100 islets from 3 separate experiments (and means±S.E. for 100 islets from 1 experiment for FIG. 8B).
# rat islets [2] = test: BCH-stimulated insulin secretion and oxygen consumption in perifused islets; type: cell-based, Wistar rat; settings: 20 μM
# Description: In this Example, the effects of EGCG and EGC on LSIS were measured, while simultaneously monitoring respiration rates. More particularly, the effects of EGCG (20 μM) and EGC (20 μM) on BCH-stimulated insulin secretion were measured. First, 1000 adult male Wistar rat islets were isolated as described above and were cultured on a glass perfusion chamber in 10 mM glucose for 3 days. Next, the islets were perifused in an oxygen consumption measurement apparatus containing BCH, along with 0 μM EGCG and 0 μM EGC, 20 μM EGCG, or 20 μM EGC. The perifusion apparatus used in these Examples consisted of a peristaltic pump, a water bath (37° C.), a gas exchanger (artificial lung: media flowed through the thin-walled silastic tubing loosely coiled in a glass jar that contained 20% O2 and 5% CO2 balanced with N2), and fraction collector. All transfer lines were insulated. After the system was provided with 20 μM EGCG or 20 μM EGC, oxygen partial pressure was recorded every 10 seconds by phosphorescence lifetimes of an oxygen-sensitive porphyrin (palladium-mesotetra; 4-carboxyphenyl porphyrin dendrimer). The dye molecules were excited with pulses at 524 nm from a UV lead and emission was measured at 690 nm. The inflow oxygen tension was measured in the absence of islets in the chamber before and after each experiment. The perifusate was a Krebs buffer (pH 7.4) containing 2.2 mM Ca^2+, 1% bovine serum albumin equilibrated with 20% O2 and 5% CO2 balanced with N2. The flow rate was […] and samples were collected every 2 minutes for insulin measurements by radioimmunoassay. The results are summarized in FIG. 6, and are presented as means±S.E. for 1000 islets from 3 separate experiments for EGCG (and from 1 experiment for EGC). Due to the high density of data, S.E. is only shown in every 20 samples.
# rat islets [3] = test: glucose stimulated insulin secretion in 120 minute run-down islets; type: cell-based
# Description: Under brief “run-down” conditions used for the above GSIS analysis, where glucose was removed from the cells for only […], the levels of high-energy metabolites (i.e., GTP and ATP) have not been depleted and these effectively shut down GDH activity. This, in turn, eliminated any effect GDH might have on insulin secretion. Therefore, the effects of EGCG were also tested on […] that had been “run-down” for a longer period of time (120 minutes) prior to glucose stimulation (FIG. 11). Specifically, isolated rat islets were cultured with 10 mM glucose for 3 days and then perifused in the absence of glucose and in the presence of 0 or 20 μM EGCG (or 20 μM EGC) for “run-down” periods of 120 minutes prior to stimulation with a glucose ramp (0 to 25 mM, 0.5 mM/minute). Finally, islets were exposed to 30 mM KCl. The insert highlighted the insulin secretion from time=120 minutes to 140 minutes.
# [4] = ethanol, DMSO, dimethyl formamide; cited from earlier work
compound,measurement,setting,value
"[N-]=[N+]=CC(=O)CC[C@H](N)C(=O)O [DON, 6-diazo-5-oxo-L-norleucine, reference compound]",effect on 10 mM BCH-stimulated glutamine oxidation,"islets; 3 mM glutamine, FIG. 7B, 7C",blocks glutaminolysis to levels lower than the unstimulated β-cells at high concentrations
"NC1(C(=O)O)CC2CCC1C2 (stereo not drawn) [BCH, beta-2-aminobicyclo[2.2.1]heptane-2-carboxylic acid, reference compound]",stimulation of glutamine oxidation,"islets; 100 islets, 2 mM glutamine, FIG. 7A",dose-dependently stimulated
"Oc1cc(O)c2c(c1)O[C@H](c1cc(O)c(O)c(O)c1)[C@H](O)C2 [EGC, epigallocatechin, reference compound]",potent inhibitor of GDH activity,Bovine GDH (bGDH),not
same,effect on GSIS,rat islets [1],neither EGC nor EGCG affected
same,sensitization of the β-cells to BCH,rat islets [2],slight sensitization
same,effect on LSIS (BCH-induced insulin secretion),rat islets [2]; FIG. 6A,did not cause significant inhibition
same,effect on BCH-induced increase in respiration rates,rat islets [2]; FIG. 6B,nor did it have as strong of an effect on respiration as compared to EGCG
same,block of BCH stimulation of glutaminolysis (glutamine oxidation),"islets; 20 μM, 2 mM glutamine, FIG. 7A",not
same,potentiation of GSIS,"rat islets [3]; 20 μM, 120 minute run-down, FIG. 11",not
same,effect on KCl-stimulated release of insulin,rat islets [3]; 30 mM KCl,neither EGCG or EGC affected
same,sensitization of the cells at low glucose concentrations,"rat islets [3]; FIG. 11, inset",slightly sensitize
"O=C(O[C@@H]1Cc2c(O)cc(O)cc2O[C@@H]1c1ccc(O)c(O)c1)c1cc(O)c(O)c(O)c1 [ECG, (2R,3R)-2-(3,4-Dihydroxyphenyl)-3,4-dihydro-1 (2H)-benzopyran-3,5,7-triol 3-(3,4,5-trihydroxybenzoate)]",soluble in organic solvents,[4],soluble
same,potent inhibitor of GDH activity,Bovine GDH (bGDH),potent inhibitors
